Measurements: US20060217303A1, “Compounds and Methods for Treating Seizure Disorders” (Wisconsin Alumni Research Foundation, priority 2005, published 2006)

Assays:
[1] = test system: CA3 region of rat hippocampal slices; experiment: Synchronized bursting induced by elevated [K+]o in rat hippocampal slices ex corpora (extracellular CA3 recording); format: cell-based; settings: for synchronized bursting: 10 mM glucose; for epileptic discharges evoked in vitro (relative burst frequency) / epileptiform bursting frequency: normal glucose conditions; for epileptic discharges evoked in vitro (relative burst frequency): summary statement; for block of the increase in bursting caused by the PEPCK inhibitor 3-MCP: slices simultaneously exposed to 3-MCP, FIGS. 5A, 5B; for epileptiform bursting frequency: FIG. 6A; for burst frequency: 20 mM lactate or 20 mM pyruvate in place of 10 mM glucose in ACSF, 7.5 mM [K+]o
Experimental: The effect of various energy sources on synchronized bursting induced by elevation of [K^+]o in rat hippocampal slices ex corpora was evaluated.
In these experiments, postnatal day 28 to 40 male Sprague-Dawley rats were anesthetized and decapitated. Brains were removed and transferred to ice cold artificial cerebrospinal fluid (ACSF, comprising 124 mM NaCl, 5 mM KCl, 1.25 mM NaH2PO4, 1.5 mM MgSO4, 26 mM NaHCO3 and 2 mM CaCl2), supplemented with 10 mM glucose, which was continuously bubbled with 95% O2 and 5% CO2. Transverse hippocampal slices (˜500 microns) were prepared on a Leica VT1000s vibratome (Wetzlar Germany). The slices were allowed to recover for 1 hour at room temperature and were then transferred to an interface recording chamber at 34° C. in ACSF with 7.5 mM [K^+]o. Extracellular recordings were made from the CA3 region with an Axioclamp 2B (Axon Instruments, Forest City, Calif.) using a glass microelectrode filled with 150 mM NaCl. Data were recorded and analyzed using PClamp8 (Axon Instruments).
Synchronized bursting was induced by incubating hippocampal slices in ACSF supplemented with potassium chloride to a final concentration of 7.5 mM [K^+]o. Baseline recordings were obtained after exposure to elevated [K^+]o for 1 hour and the burst frequency had stabilized. Bursting was then recorded in ACSF containing 20 mM lactate or 20 mM pyruvate in place of the 10 mM glucose.

[2] = Duration of anticonvulsant effect of 2DG after stopping treatment while continuing twice daily stimulation; format: in vivo; settings: 250 mg/kg twice daily for 3 months; twice daily stimulation continued
Experimental: . […]; 5 mM solutions of oxaloacetate glycolic acid, chloroacetate and thioglycolate are equivalent to 660 mg/kg 380 mg/kg, ˜620 mg/kg and 460 mg/kg. respectively. […] A practitioner skilled in the art can adjust dosage in the range up to 500-600 mg/kg 2DG and the timing of administration to produce prolonged anticonvulsant and antiepileptic effects. Efficacious dosage amounts can be adjusted to about 14 mg/kg 2-DG in children and 40 mg/kg 2-DG in adults, using therapeutic efficacy measurements (e.g., reduction in frequency or severity of seizures) as a criterion for establishing effective dosage levels.

[3] = test system: brains of animals suffering from a seizure disorder; settings: as disclosed in co-owned U.S. Ser. No. 60/580,436; cited from earlier work

O=CC[C@@H](O)[C@H](O)[C@H](O)CO [2DG, 2-deoxy-D-glucose]
synchronized bursting ([1]; 1 mM 2DG in the presence of 20 mM lactate): reduced synchronized bursting | epileptic discharges evoked in vitro (relative burst frequency) [1]: effective against epileptic discharges | block of the increase in bursting caused by the PEPCK inhibitor 3-MCP [1]: could not be blocked | duration of anticonvulsant effects after stopping 2DG [2]: approximately 8 weeks | epileptic or synchronized bursting in the brains of animals [3]: effective in reducing epileptic or synchronized bursting

O=C(O)c1ncccc1S [3-MCP, 3-mercaptopicolinic acid, reference compound]
burst frequency (rate of bursting) ([1]; 3 mM 3-MCP in ACSF with 10 mM glucose): 208±28 % of baseline | rate of bursting ([1]; 3-MCP, FIGS. 5A and 5B): induces an increase in the rate of bursting

O=C(O)[C@@H](O)CO [L-glycerate]
epileptic discharges evoked in vitro (relative burst frequency) [1]: effective against epileptic discharges

C=C(OP(=O)(O)O)C(=O)O [PEP, phosphoenolpyruvate, reference compound]
burst frequency (rate of bursting) ([1]; 5 mM PEP in ACSF with 10 mM glucose, reversible): 215±32 % of baseline

O=C(O)CO [glycolic acid]
block of the increase in bursting caused by inhibition of PEPCK by 3-MCP ([1]; PEPCK substrate with 3-MCP, FIGS. 6B, 6C): modestly blocks an increase in bursting | epileptiform bursting frequency [1]: reduce epileptiform bursting frequency | epileptic discharges evoked in vitro (relative burst frequency) [1]: effective against epileptic discharges

O=C(O)CI [iodoacetate, reference compound]
synchronized bursting ([1]; 200 μM iodoacetate, ACSF with 20 mM lactate): reduced synchronized bursting | epileptic discharges evoked in vitro (relative burst frequency) [1]: effective against epileptic discharges | block of the increase in bursting caused by the PEPCK inhibitor 3-MCP [1]: could not be blocked | epileptic or synchronized bursting in the brains of animals [3]: effective in reducing epileptic or synchronized bursting

CC(O)C(=O)O (stereo not shown) [lactate, reference compound]
burst frequency ([1]; reversible): 63±8 % of the baseline

CC(=O)C(=O)O [pyruvate, reference compound]
burst frequency ([1]; reversible): 4±2 % of the baseline

O=C(O)CCl [β-chloroacetate]
epileptiform bursting frequency [1]: reduce epileptiform bursting frequency | epileptic discharges evoked in vitro (relative burst frequency) [1]: effective against epileptic discharges

thioglycolate
epileptiform bursting frequency [1]: reduce epileptiform bursting frequency | epileptic discharges evoked in vitro (relative burst frequency) [1]: effective against epileptic discharges
